Columns and labels:
human ANO1(abc) = biological target: T1, human ANO1(abc) (Homo sapiens, UniProt Q5XXA6, DEL476-501); assay: YFP fluorescence plate reader assay of iodide influx in ANO1 expressing FRT cells; type: cell-based; conditions: read-out: IC50 of ANO1 inhibition
T1 construct: expressed in transfected cells
T1 sequence (Q5XXA6 with tags, fused parts or gaps isoform Q5XXA6-5 DEL539-564): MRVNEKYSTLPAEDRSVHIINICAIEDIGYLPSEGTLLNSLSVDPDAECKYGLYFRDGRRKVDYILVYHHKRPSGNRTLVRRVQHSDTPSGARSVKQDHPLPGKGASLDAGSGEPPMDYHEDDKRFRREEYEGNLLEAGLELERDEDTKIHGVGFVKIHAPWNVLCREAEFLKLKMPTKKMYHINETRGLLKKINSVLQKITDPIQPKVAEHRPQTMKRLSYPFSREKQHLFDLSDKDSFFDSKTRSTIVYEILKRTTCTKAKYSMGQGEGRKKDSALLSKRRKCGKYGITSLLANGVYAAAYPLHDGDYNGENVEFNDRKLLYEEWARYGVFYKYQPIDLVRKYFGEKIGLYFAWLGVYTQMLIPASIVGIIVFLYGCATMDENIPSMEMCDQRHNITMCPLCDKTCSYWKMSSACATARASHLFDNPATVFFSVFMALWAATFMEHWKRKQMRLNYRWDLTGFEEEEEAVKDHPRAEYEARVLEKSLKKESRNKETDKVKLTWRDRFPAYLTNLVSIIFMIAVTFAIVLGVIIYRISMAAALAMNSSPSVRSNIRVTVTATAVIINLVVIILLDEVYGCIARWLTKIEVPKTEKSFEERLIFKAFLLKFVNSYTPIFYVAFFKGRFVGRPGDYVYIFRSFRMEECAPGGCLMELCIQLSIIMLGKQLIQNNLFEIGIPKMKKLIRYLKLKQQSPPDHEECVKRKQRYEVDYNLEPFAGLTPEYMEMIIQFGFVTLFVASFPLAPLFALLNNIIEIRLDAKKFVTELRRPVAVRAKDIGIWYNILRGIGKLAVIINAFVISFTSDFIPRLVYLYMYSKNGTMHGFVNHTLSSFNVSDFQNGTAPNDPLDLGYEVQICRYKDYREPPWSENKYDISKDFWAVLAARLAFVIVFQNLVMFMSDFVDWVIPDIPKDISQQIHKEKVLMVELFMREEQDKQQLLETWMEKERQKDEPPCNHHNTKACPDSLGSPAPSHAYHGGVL
Method: Cell based screening was performed as described in previous study. Briefly, ANO1 and YFP expressing FRT cells were plated in 96-well black-walled microplates (Corning Inc., Corning, NY) at a density of 20,000 cells per well, and then cultured for 2 days. Assays were done using FLUOstar Omega microplate reader (BMG Labtech, Ortenberg, Germany) and MARS Data Analysis Software (BMG Labtech). Each well of 96-well plate was washed 3 times in PBS (200 μL/wash), leaving 100 μL PBS. Test compounds (1 μL) were added to each well at 25 μM final concentration. After 10 min, 96-well plates were transferred to a plate reader for fluorescence assay. Each well was assayed individually for TMEM16A-mediated I^- influx by recording fluorescence continuously (400 ms per point) for 1 s (baseline), then 100 μL of 140 mM I^- solution containing 200 μM ATP was added at 1 s and then YFP fluorescence was recorded for 5 s. Initial iodide influx rate was determined from the initial slope of fluorescence decrease, by nonlinear regression, following infusion of iodide with ATP.
ANO1 chloride channel activity was measured using Fischer rat thyroid (FRT) cells stably expressing human ANO1(abc) and the genetically encoded iodide-sensing fluorescent protein, YFP-F46L/H148Q/I152L. This cell model was used because of our prior success in ANO1 chloride channel drug discovery. For the screening to identify ANO1 inhibitors, the FRT cells were pre-incubated with test compounds for 10 minutes prior to addition of an iodide and ATP, an agonist of P2 purinergic receptor which induces an increase in intracellular calcium concentration and activation of ANO1, containing solution.

VRAC = tested on: VRAC; parameters: method as in PMID 24965069, PMID 25163766, PMID 26438191; conditions: ref [26]–[28]; cited from earlier work

Structure (SMILES)	IC50 (human ANO1(abc)) [µM]	block of VRAC activity (VRAC)
COc1ccccc1/C=N/NC(=O)COc1ccc(Br)cc1OC [#4]	0.438	
O=C(Nc1cc(C(F)(F)F)cc(C(F)(F)F)c1)Nc1ccc(Br)cc1-c1nnn[nH]1 [NS3728]		potently blocked
Cc1cc(Cl)ccc1OCC(=O)N/N=C/c1ccc(O)cc1 [#3]	0.301	
COc1ccc(OC)c(/C=N/NC(=O)COc2ccc(Cl)cc2C)c1 [#2]	0.262	
CCOc1cc(I)cc(/C=N/NC(=O)COc2cccc(C)c2C)c1O [#8]	0.894	
Cc1cc(Cl)ccc1OCC(=O)N/N=C/c1ccccc1O [#9]	1.02	
COc1ccccc1/C=N/NC(=O)COc1ccc(I)cc1 [#5]	0.481	
CCc1ccc(Br)cc1/C=N/NC(=O)COc1ccc(Br)cc1 [#6]	0.512	
CCOc1ccc(Br)cc1/C=N/NC(=O)COc1ccc(Cl)cc1Cl [#1]	0.194	
Cc1cc(Cl)ccc1OCC(=O)N/N=C/c1ccc(O)cc1O [#7]	0.572	
